One assay concerns the target T1, hT1R1/hT1R3 umami receptor expressed in an HEK293 cell line (Homo sapiens, UniProt Q7RTX0+Q7RTX1).
T1 construct: expressed in transfected cells; host or cells: HEK293 derivative, clone I-17, expression induced with mifepristone
T1 sequence (Q7RTX1 21-841): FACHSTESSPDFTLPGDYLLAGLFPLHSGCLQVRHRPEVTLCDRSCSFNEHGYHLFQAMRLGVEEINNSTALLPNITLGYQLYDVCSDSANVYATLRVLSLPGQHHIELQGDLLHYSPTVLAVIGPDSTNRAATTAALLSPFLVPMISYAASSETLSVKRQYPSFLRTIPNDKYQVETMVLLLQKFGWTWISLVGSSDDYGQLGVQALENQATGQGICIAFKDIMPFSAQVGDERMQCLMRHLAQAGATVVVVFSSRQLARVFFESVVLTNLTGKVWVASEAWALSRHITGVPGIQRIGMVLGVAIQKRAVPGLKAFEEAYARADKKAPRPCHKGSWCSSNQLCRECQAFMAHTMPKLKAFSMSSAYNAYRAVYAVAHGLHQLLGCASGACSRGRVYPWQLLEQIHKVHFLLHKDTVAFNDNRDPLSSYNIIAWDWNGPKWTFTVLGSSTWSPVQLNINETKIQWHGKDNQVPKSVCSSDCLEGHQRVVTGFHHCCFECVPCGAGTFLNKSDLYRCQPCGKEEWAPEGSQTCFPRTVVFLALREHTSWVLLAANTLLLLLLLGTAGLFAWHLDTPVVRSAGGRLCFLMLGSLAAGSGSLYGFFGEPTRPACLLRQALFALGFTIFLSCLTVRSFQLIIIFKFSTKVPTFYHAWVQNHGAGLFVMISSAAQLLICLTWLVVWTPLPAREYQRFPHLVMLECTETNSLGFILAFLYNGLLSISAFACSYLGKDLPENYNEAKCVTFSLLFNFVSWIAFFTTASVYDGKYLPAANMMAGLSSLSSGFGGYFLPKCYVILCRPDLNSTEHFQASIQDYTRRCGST
T1 sequence (Q7RTX0 21-852): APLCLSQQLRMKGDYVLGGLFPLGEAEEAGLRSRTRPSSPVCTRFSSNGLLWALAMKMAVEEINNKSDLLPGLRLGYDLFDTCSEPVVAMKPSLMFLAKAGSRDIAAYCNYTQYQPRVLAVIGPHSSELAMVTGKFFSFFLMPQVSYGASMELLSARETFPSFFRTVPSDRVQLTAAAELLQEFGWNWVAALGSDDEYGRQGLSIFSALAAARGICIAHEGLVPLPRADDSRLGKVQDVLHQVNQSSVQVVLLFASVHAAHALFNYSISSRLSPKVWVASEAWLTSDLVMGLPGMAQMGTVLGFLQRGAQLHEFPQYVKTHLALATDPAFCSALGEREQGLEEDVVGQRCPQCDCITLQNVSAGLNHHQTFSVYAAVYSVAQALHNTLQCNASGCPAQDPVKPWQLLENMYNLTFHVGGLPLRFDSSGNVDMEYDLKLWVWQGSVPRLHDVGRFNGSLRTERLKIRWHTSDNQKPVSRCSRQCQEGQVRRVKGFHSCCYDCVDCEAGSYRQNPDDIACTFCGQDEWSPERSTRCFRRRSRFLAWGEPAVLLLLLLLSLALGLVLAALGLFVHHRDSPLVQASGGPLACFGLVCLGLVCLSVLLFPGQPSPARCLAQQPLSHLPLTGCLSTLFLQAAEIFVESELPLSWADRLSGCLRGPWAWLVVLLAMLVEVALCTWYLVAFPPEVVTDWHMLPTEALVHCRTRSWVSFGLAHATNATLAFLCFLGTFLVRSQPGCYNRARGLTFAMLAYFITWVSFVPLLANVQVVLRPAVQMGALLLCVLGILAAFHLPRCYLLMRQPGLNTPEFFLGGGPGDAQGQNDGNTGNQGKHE
Put plainly: In vitro hT1R1/hT1R3 umami taste receptor activation assay (FLIPR, dose response). The note with it: read-out: EC50 for activation of a hT1R1/hT1R3 umami receptor expressed in an HEK293 cell line. The format is cell-based. The source says: In order to identify new savory flavoring agents and enhancers, including compounds with savory agonist and enhancer activities (dual activity), the tastant compounds of Formula (I) were screened in primary assays and secondary assays including compound dose response and enhancement assay. In a primary assay for potential ability to modulate umami taste, tastant compounds of Formula (I) that can be either savory flavoring agents in their own right or flavor enhancers of MSG are identified and scores of their activities are given as percentage of the maximum MSG intensity (%). In compound dose response, an EC50 is calculated to reflect the potency of the compound as a savory agonist or enhancer.
An HEK293 cell line derivative (see e.g., Chandrashekar, et al., Cell (2000) 100: 703-711) which stably expresses Gα15 and hT1R1/hT1R3 under an inducible promoter (see WO 03/001876 A2) was used to identify compounds with savory tasting properties.
Compounds disclosed in this application were initially selected based on their activity on the hT1R1/hT1R3-HEK293-Gα15 cell line. Activity was determined using an automated fluorometric imaging assay on a FLIPR instrument (Fluorometric Intensity Plate Reader, Molecular Devices, Sunnyvale, Calif.) (designated FLIPR assay). Cells from one clone (designated clone I-17) were seeded into 384-well plates (at approximately 48,000 cells per well) in a medium containing Dulbecco's modified Eagle's medium (DMEM) supplemented with GlutaMAX (Invitrogen, Carlsbad, Calif.), 10% dialyzed fetal bovine serum (Invitrogen, Carlsbad, Calif.), 100 Units/ml Penicillin G, 100 μg/ml Streptomycin (Invitrogen, Carlsbad, Calif.) and 60 pM mifepristone (to induce expression of hT1R1/hT1R3, (see WO 03/001876 A2). I-17 cells were grown for 48 hours at 37° C. I-17 cells were then loaded with the calcium dye Fluo-3AM (Molecular Probes, Eugene, Oreg.), 4 μM in a phosphate buffered saline (D-PBS) (Invitrogen, Carlsbad, Calif.), for 1.5 hours at room temperature. After replacement with 25 μl D-PBS, stimulation was performed in the FLIPR instrument and at room temperature by the addition of 25 μl D-PBS supplemented with different stimuli at concentrations corresponding to twice the desired final level. Receptor activity was quantified by determining the maximal fluorescence increases (using a 480 nm excitation and 535 nm emission) after normalization to basal fluorescence intensity measured before stimulation.
(§1) For dose-responses analysis, stimuli were presented in duplicates at 10 different concentrations ranging from 1.5 nM to 30 μM. Activities were normalized to the response obtained with 60 mM monosodium glutamate, a concentration that elicits maximum receptor response. EC50s (concentration of compound that causes 50% activation of receptor) were determined using a non-linear regression algorithm, where the Hill slope, bottom asymptotes and top asymptotes were allow to vary. Identical results were obtained when analyzing the dose-response data using commercially available software for non-linear regression analysis such as GraphPad PRISM (San Diego, Calif.).
With `CCOc1ccc(NC(=S)NCCc2ccccn2)cc1` [Example 2], the EC50 came out at 0.55 µM.

The same assay, now with this note: read-out: Umami EC50.
For the compound `S=C(NCCc1ccccn1)Nc1ccccc1OCc1ccccc1` [Example A1], the EC50 was found to be 1.31 µM.

For the compound `CC(C)c1ccc(NC(=S)NCCc2ccccn2)cc1` [Example A2], the EC50 stood at 1.43 µM.

In the case of `CC(C)(C)c1ccc(NC(=S)NCCc2ccccn2)cc1` [Example A3], the EC50 came out at 1.92 µM.

For the compound `CCc1ccc(NC(=S)NCCc2ccccn2)cc1` [Example A4], the EC50 is 1.37 µM.

With `CSc1ccc(NC(=S)NCCc2ccccn2)cc1` [Example A5], the EC50 came out at 3.26 µM.

The next assay deals with T2, hT1R2/hT1R3 sweet receptor expressed in an HEK293 cell line (Homo sapiens, UniProt Q7RTX0+Q8TE23).
T2 construct: expressed in transfected cells; host or cells: HEK293 derivative, clone S-9
T2 sequence (Q8TE23 20-839): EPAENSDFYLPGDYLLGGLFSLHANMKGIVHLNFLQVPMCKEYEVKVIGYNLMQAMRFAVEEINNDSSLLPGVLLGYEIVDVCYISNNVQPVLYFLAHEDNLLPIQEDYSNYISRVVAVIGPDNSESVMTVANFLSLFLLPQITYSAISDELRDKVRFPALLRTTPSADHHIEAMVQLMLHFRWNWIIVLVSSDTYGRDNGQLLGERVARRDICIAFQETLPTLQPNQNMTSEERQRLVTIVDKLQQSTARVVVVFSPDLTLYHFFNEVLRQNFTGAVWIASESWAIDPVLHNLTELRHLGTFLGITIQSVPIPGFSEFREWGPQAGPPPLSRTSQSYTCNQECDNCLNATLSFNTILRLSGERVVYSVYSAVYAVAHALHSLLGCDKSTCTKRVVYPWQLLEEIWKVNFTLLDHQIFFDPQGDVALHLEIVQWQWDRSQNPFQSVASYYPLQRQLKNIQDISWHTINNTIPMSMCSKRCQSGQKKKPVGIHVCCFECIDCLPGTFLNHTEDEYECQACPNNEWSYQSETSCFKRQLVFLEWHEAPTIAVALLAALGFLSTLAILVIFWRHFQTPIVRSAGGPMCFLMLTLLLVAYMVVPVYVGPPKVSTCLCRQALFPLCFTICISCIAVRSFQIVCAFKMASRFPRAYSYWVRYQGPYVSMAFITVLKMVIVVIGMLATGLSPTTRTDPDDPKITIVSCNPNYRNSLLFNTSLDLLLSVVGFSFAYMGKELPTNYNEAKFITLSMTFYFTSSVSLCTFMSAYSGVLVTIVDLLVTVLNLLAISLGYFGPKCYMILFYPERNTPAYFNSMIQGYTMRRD
T2 sequence (Q7RTX0 21-852): T1 sequence (Q7RTX0 21-852)
Kind of assay: In vitro hT1R2/hT1R3 sweet taste receptor activation assay (FLIPR, dose response). The format is cell-based. The note with it: read-out: Sweet EC50.
Text: An HEK293 cell line derivative (see Chandrashekar, J., Mueller, K. L., Hoon, M. A., Adler, E., Feng, L., Guo, W., Zuker, C. S., Ryba, N. J.,. Cel,l 2000, 100, 703-711.) that stably expresses Gα15 and hT1R2/hT1R3 (see Li, X., Staszewski, L., Xu, H., Durick, K., Zoller, M., Adler, E. Proc Natl Acad Sci USA 2002, 99, 4692-4696, and PCT Publication No. WO 03/001876) was used to identify compounds with sweet taste enhancing properties. These references are hereby incorporated herein by reference for their methods of preparing and maintaing the cell lines discussed below, and for their methods for screeing compounds that inhibit the biological receptors.
Compounds covered in this document were initially selected based on their activity on the hT1R2/hT1R3—HEK293-Gα15 cell line (Li, et al. vide supra). Activity was determined using an automated fluorometric imaging assay on a FLIPR instrument (Fluorometric Intensity Plate Reader, Molecular Devices, Sunnyvale, Calif.) (designated FLIPR assay). Cells from one clone (designated S-9 cells) were seeded into 384-well plates (at approximately 50,000 cells per well) in a medium containing DMEM Low Glucose (Invitrogen, Carlsbad, Calif.), 10% dialyzed fetal bovine serum (Invitrogen, Carlsbad, Calif.), 100 Units/ml Penicillin G, and 100 μg/ml Streptomycin (Invitrogen, Carlsbad, Calif.) (Li, et al. vide supra) see also World Patent No. WO 03/001876 A2). S-9 cells were grown for 24 hours at 37° C. S-9 cells were then loaded with the calcium dye Fluo-3AM (Molecular Probes, Eugene, Oreg.), 4 μM in a phosphate buffered saline (D-PBS) (Invitrogen, Carlsbad, Calif.), for 1 hour at room temperature. After replacement with 25 μl D-PBS, stimulation was performed in the FLIPR instrument and at room temperature by the addition of 25 μl D-PBS supplemented with different stimuli at concentrations corresponding to twice the desired final level. Receptor activity was quantified by determining the maximal fluorescence increases (using a 480 nm excitation and 535 nm emission) after normalization to basal fluorescence intensity measured before stimulation.
as §1, with “60” for “1.5”, “400” for “60”, “D-fructose,” for “monosodium glutamate,”, “EC50s” for “EC50s (concentration of compound that causes 50% activation of receptor)”, “algorithm (using a Senomyx, Inc. software),” for “algorithm,”
`CCCCc1ccc(NC(=S)NCc2ccc[nH]2)cc1` [Example B34]: the EC50 was 5.96 µM.

For the compound `CC(C)Oc1ccc(NC(=S)NCc2cccnc2)cc1` [Example B35], the EC50 is 6.71 µM.

`C#Cc1ccc(NC(=S)NCc2cccs2)cc1` [Example B36]: the EC50 was 7 µM.

For `CC(=O)c1ccc(NC(=S)NCc2ccoc2)cc1` [Example B37], the EC50 came out at 7.45 µM.

Regarding `S=C(NCc1ccc[nH]1)Nc1ccc(N2CCOCC2)cc1` [Example B38], the EC50 is 8.17 µM.

Take `OCCSc1ccc(NC(=S)NCc2ccc[nH]2)cc1` [Example B39]: the EC50 was 8.5 µM.

Turning to `S=C(NCc1ccoc1)Nc1ccc2c(c1)OCO2` [Example B40], the EC50 worked out at 11.6 µM.

Turning to `CC(C)Oc1ccc(NC(=S)NCc2ccncc2)cc1` [Example B41], the EC50 stood at 14.2 µM.

On to `O=S(=O)(NCc1ccncc1)c1ccc(F)cc1` [Example B42], for which the EC50 stood at 6.5 µM.

`Cc1cc(C)c(S(=O)(=O)NCc2ccncc2)c(C)c1` [Example B43]: the EC50 worked out at 0.76 µM.

On to `CCOc1ccc(S(=O)(=O)NCc2ccncc2)cc1` [Example B44], for which the EC50 turned out to be 0.93 µM.

As to `COc1c(S(=O)(=O)NCc2ccncc2)ccc(Cl)c1Cl` [Example B45], the EC50 stood at 2.18 µM.

With `CCCCOc1ccc(S(=O)(=O)Nc2cccnc2)cc1` [Example B46], the EC50 worked out at 2.19 µM.

As to `COc1ccc(S(=O)(=O)Nc2ccc3nn(C)cc3c2)cc1` [Example B47], the EC50 was determined as 2.94 µM.

Regarding `COC(=O)COc1ccc(S(=O)(=O)Nc2ccc3c(c2)OCCO3)cc1` [Example B48], the EC50 is 7.97 µM.

On to `COc1ccc(Cl)cc1S(=O)(=O)NCc1ccco1` [Example B49], for which the EC50 came to 8 µM.
